Experimental data from PMC11418212, “Characterization of four structurally diverse inhibitors of SUR2-containing KATP channels” (Channels, 2024).
Several values for one entry are separate records, joined by “and”; a condition that tells them apart may be missing. Equal values may be shown once.

Tests used:
Experiment in all cases: Kir family selectivity thallium flux assay
Format in all cases: cell-based
Kir2.1 = molecular target: T1, Kir2.1 (Homo sapiens, UniProt P63252)
T1 construct: expressed in transfected cells
T1 sequence (P63252 1-427): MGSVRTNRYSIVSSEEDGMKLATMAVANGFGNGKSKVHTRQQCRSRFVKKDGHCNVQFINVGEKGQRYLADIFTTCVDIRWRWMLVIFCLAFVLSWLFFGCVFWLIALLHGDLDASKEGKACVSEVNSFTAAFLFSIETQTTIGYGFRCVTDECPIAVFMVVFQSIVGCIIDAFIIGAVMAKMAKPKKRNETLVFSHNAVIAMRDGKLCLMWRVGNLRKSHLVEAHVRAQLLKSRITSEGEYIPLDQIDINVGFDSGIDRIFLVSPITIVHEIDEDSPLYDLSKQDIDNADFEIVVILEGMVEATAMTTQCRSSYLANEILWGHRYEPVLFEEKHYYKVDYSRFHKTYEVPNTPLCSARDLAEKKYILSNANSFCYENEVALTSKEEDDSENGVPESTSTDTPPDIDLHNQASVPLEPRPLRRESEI
Protocol: (§1) Thallium flux assays were conducted using the established methods. Stably transfected T-REx-HEK-293 cells expressing Kir6.2/SUR1 or Kir6.1/SUR2B were cultured overnight in polyamine-coated plates (black-walled, clear-bottomed; BD, Bedford, MA) at a density of 20,000 cells in 20 µl per well of cell culture media. The expression of Kir6.2/SUR1 or Kir6.1/SUR2B channels was induced by treating cells with 1 µg/ml tetracycline overnight. The following day, cells were rinsed with an assay buffer (Hanks’ Balanced Salt Solution supplied with 20 mM HEPES), loaded with the thallium-sensor dye Brilliant Thallos-AM AM (Ion Bioscience, San Marcos, TX) for 1 h, and then washed again with assay buffer to remove unincorporated dye. The cell plate was subsequently placed in a Panoptic Kinetic Imaging Plate Reader (Wavefront Bioscience, Franklin, TN) and imaged at a frequency of 1 Hz using 482/35 nm (excitation) and 536/40 nm (emission) filter sets. Kir6.1/SUR2B channels were activated with 10 µM pinacidil, whereas Kir6.1/SUR1 was activated with 30 µM VU0071063 [34]. To activate KATP channels independent of activators with ATP-depletion method, cells were treated with a cocktail of metabolic inhibitors (2.5 mM sodium cyanide and 20 mM 2-deoxy glucose) for 25 min before imagine. Control and test compounds diluted freshly from DMSO stocks into assay buffer were added to wells for four minutes before adding 0.5 mM chloride-free thallium stimulus buffer (Ion Bioscience) to initiate thallium flux through the expressed KATP channels. Thallium flux was recorded from all 384-wells for 2 min before terminating the experiment. […] Selectivity assays against other Kir channels were performed as described previously.
(§2) To begin elucidating the binding site location of VU0212387, VU0543336, VU0605768, and VU0544086, we evaluated the activity of the inhibitors against KATP channels composed of different Kir and SUR subunit combinations expressed in HEK293 cells. Specifically, the compounds were tested against Kir6.1/SUR1, Kir6.2/SUR1, Kir6.1/SUR2A, Kir6.2/SUR2A, Kir6.1/SUR2B, and Kir6.2/SUR2B at a dose of 3 µM. […] We expanded the selectivity analysis to include 10 other members of the Kir channel family.

Kir7.1 (M125R) = molecular target: T2, Kir7.1 (M125R) (Homo sapiens, UniProt O60928, M125R); settings: for IC50: thallium flux
T2 construct: expressed in transfected cells
T2 sequence (O60928 1-360 M125R): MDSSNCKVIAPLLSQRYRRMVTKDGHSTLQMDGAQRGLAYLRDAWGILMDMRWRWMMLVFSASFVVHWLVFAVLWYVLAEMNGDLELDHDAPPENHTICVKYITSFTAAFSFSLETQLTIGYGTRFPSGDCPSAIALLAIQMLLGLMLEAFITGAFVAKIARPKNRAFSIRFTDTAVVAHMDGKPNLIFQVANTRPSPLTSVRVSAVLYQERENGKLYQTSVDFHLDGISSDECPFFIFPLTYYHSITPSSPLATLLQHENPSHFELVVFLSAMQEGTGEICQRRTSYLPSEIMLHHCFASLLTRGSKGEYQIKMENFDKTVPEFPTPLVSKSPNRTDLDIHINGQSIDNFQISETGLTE
Protocol: as §1, §2

Kir3.1/3.4 = molecular target: T3, Kir3.1/3.4 (Homo sapiens, UniProt P48544+P48549); settings: for IC50: thallium flux
T3 construct: expressed in transfected cells
T3 sequence (P48549 1-501): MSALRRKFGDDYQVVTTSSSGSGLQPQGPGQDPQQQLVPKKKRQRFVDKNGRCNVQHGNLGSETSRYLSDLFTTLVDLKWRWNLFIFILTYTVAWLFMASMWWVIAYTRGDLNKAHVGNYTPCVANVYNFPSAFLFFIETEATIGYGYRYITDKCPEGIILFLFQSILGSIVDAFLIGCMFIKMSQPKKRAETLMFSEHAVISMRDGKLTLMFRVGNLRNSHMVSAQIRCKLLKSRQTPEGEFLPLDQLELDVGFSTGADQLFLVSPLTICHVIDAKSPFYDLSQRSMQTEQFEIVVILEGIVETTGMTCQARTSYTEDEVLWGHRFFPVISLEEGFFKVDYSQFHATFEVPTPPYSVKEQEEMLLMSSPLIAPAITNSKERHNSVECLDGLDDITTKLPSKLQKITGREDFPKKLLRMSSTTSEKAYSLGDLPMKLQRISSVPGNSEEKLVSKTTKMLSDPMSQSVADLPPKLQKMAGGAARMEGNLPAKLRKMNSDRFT
T3 sequence (P48544 1-419): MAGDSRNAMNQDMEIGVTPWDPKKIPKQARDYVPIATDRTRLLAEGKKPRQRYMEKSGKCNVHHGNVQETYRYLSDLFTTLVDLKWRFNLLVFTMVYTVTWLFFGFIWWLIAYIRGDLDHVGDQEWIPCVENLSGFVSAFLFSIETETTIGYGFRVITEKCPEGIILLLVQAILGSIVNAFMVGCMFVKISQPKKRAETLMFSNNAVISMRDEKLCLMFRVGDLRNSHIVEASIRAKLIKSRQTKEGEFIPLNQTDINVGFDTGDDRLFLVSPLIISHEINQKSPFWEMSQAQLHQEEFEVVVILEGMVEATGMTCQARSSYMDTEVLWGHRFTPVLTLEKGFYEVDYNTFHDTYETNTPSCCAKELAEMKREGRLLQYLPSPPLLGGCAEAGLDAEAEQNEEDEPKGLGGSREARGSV
Protocol: as §1, §2

| SMILES | IC50 (Kir2.1) [µM] | inhibition at 30 µM (Kir7.1 (M125R); observed at 30 µM, read-out: Percent maximal inhibition of Kir7.1 (M125R)) [%] | IC50 (Kir7.1 (M125R)) | IC50 (Kir3.1/3.4) [µM] | inhibition at 30 µM (Kir3.1/3.4; observed at 30 µM, read-out: Percent maximal inhibition of Kir3.1/3.4) [%] |
| --- | --- | --- | --- | --- | --- |
| c1ccc2[nH]c(CSc3ncnc4c3oc3ccccc34)nc2c1 [VU0212387, 4-(((1 H-benzo[d]imidazol-2-yl)methyl)thio)benzofuro[3,2-d]pyrimidine] | > 30 | 69 | 12 µM and 12.3 µM | > 30 |  |
| O=C(NCC(O)(c1ccccc1)C(F)(F)F)c1ccc(OC(F)(F)F)cc1 (centres unmarked) [VU0543336, N-(3,3,3-trifluoro-2-hydroxy-2-phenylpropyl)-4-(trifluoromethoxy)benzamide] | > 30 |  | > 30 µM | > 30 |  |
| O=C(NCc1cc(-c2ccncc2)n(C2CCCC2)n1)Nc1cccs1 [VU0544086, 1-((1-cyclopentyl-5-(pyridin-4-yl)-1 H-pyrazol-3-yl)methyl)-3-(thiophen-2-yl)urea] | > 30 |  | > 30 µM | 16.2 | 92 |
| O=C1c2oc3ccccc3c(=O)c2C(c2cccc(Br)c2)N1CCO (centres unmarked) [VU0605768, 1-(3-bromophenyl)-2-(2-hydroxyethyl)-1,2-dihydrochromeno[2,3-c]pyrrole-3,9-dione] | > 30 |  | > 30 µM | > 30 |  |
